Entries after “also recorded” stand apart in the source; their conditions may differ.
Assays:
Acanthamoeba [1] = assay: Acanthamoeba-induced cytopathic effect (CPE) assay, immortalized corneal epithelial cultures; format: cell-based; conditions: for Inhibition of amoeba-induced CPE: no concentration stated
Protocol: Corneal epithelial cells with extended life span were also produced.
To characterize the role of carbohydrate-mediated host-parasite interactions in the Acanthamoeba-induced cytotoxicity of host cells, in vitro cytopathic assays were performed using both primary and immortalized cultures of corneal epithelium as host cells. Immortalized cells were assayed as confluent cultures in 24-well plates, and primary cells were assayed as confluent cells in 35-mm dishes or 6-well plates.
The plates were incubated at 37° C. in a CO2 incubator and periodically examined under a phase-contrast microscope for the presence of cell-free plaques in the monolayer for up to 28-30 hours. Control wells contained host cells without the parasites. At the end of the incubation period, the cultures were stained with Giemsa (Diff-Quik, Dade Diagnostic Inc., Aguada, PR). Approximate cell density in each well was estimated by scanning the stained plates in a calibrated, computer-assisted Bio-Image Scanner (Millipore, Ann Arbor, Mich.). Cytopathic effect (CPE) was expressed as percentage of the optical density by the following formula: [formula]
The CPE assays were performed in the SFB media containing one or more saccharides to be tested.
After staining with Giemsa, percent cell loss in each well was calculated based on the optical density in each well.

Acanthamoeba [2] = assay: Adhesion of amoebae to corneal epithelial cell monolayer; format: cell-based; conditions: saccharide present in media
[3] = target: mannose binding protein (MBP) of Acanthamoeba (Acanthamoeba castellanii, UniProt Q6J288); assay: Solid-phase assay of 35S-labeled Acanthamoeba binding to Man-BSA coated wells; set-up: species or system Acanthamoeba strain MEEI 0184 (A. castellani); conditions: for Inhibition of amoebic binding to Man-BSA / affinity of amoebic lectin: no concentration stated
Chain of mannose binding protein (MBP) of Acanthamoeba (Q6J288 entry or part of it): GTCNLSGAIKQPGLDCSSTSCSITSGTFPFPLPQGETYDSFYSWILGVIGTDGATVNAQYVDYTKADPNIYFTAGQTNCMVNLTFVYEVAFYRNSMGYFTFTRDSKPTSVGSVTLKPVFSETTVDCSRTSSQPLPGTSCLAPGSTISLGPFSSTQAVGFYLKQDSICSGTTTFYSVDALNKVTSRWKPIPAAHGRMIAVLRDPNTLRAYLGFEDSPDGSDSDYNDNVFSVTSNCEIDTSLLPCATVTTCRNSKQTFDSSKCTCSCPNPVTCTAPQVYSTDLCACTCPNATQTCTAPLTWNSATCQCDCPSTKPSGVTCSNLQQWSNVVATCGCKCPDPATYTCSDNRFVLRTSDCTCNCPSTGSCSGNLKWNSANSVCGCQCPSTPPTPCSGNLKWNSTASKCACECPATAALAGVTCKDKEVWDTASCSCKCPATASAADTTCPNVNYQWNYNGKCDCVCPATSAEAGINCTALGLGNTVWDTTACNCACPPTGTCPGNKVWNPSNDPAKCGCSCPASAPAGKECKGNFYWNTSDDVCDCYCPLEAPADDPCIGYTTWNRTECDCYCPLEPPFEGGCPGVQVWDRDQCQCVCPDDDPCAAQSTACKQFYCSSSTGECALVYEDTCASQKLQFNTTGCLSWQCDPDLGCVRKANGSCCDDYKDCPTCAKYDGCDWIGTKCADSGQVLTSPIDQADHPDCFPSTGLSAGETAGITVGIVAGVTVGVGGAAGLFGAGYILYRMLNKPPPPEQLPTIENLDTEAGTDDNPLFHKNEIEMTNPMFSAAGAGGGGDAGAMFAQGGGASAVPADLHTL
Excerpt: The Acanthamoeba strain MEEI 0184 (A. castellani based on morphological characteristics) was derived from an infected human cornea and used throughout this study. ATCC strain 30868 should have similar properties. The parasites were axenically cultured in PYG medium. A solid-phase assay characterized the sugar binding properties of the mannose binding protein (MBP) of Acanthamoeba (Z. Yang et al., Infect. Immun. 65:439-445, 1997). Briefly, wells of microtiter plates were coated with bovine serum albumin-α-D-mannopyranosyl phenylisothiocyanate (Man-BSA, 15-25 moles of α-D-mannopyranoside/mole albumin, 0.03 μg/ml, 50μl/well in 0.1 M sodium carbonate buffer, pH 9.6, 4° C. overnight). Nonspecific binding was blocked with 1% BSA in phosphate buffered saline (PBS, 1 hour, room temperature). After adding a 50-μl aliquot of ^35 S-labeled Acanthamoeba (5×10^6 cells/ml in PBS; 1 to 2 cpm/parasite, >95% trophozoites) to each well, the plates were incubated for 2 hours at room temperature. After rinsing the cells with PBS to remove unbound Acanthamoeba, 0.1 ml of 2% sodium dodecyl sulfate (SDS) was added to each well, and the radioactivity in aliquots of solubilized material was determined in a scintillation counter.

Acanthamoeba [4] = assay: 51Cr release assay of amoeba-induced cytolysis of corneal epithelium; format: cell-based
Protocol: Chromium release experiments were performed to confirm the absence or occurrence of cytolysis. Visually, cell plaques or bare spots in a culture can indicate either cell loss by cytolysis, or separation of the cell from the culture surface, wherein detached cells, although initially viable, subsequently die. Cell lysis was quantified by measuring ^51 Cr release from prelabeled cells. After incubating confluent monolayer cultures of corneal epithelium in 24-well plates in cell culture medium containing Na^51 CrO4 (460 mCi/mg, 12 μCi/ml) for 18-20 hours, the cells were thoroughly rinsed and incubated with Acanthamoeba (1×10^6 parasites/ml SFB media). The four groups were (i) Acanthamoeba in media alone, (ii) Acanthamoeba in media containing α-Man, (iii) Acanthamoeba in media containing GlcNAc, and (iv) Acanthamoeba condition media. When approximately 50-70% cell loss occurred based on phase contrast microscopy, aliquots of cell-free conditioned medium from each well were analyzed. Supernatants from the four wells in each group were pooled before analysis. Percent specific release was calculated using E/T×100, where E is CPM released in test well minus CPM released in control (parasite-free) well and T is the total CPM (CPM cells+CPM supernatant in control wells). "CPM cells" was determined by incubating control wells with 0.5% Triton X-100. Conditioned media from each well was also analyzed for lactate dehydrogenase (LDH) release using an LDH assay kit (Sigma).

proteinases P2 and P3 = assay: Zymography of media conditioned by amoebae with primary corneal epithelium, with or without α-Man; format: cell-based, Acanthamoeba; conditions: amoebae with host cells, adhesion blocked by saccharide
Protocol: To characterize the mechanism by which the mannose-mediated host-parasite interactions influence the amoeba-induced cytolysis and/or cytopathic effect, conditioned media obtained by incubating amoebae with primary cultures of corneal epithelium in the presence and absence of α-Man for 6 to 8 hours were analyzed by zymography. Media conditioned by only Acanthamoeba or only epithelial cells were also analyzed. Zymography was performed using separating gels containing 10% acrylamide and 2 mg/ml gelatin, essentially as described by D. E. Kleiner et al. (Anal Biochem. 218:325-329, 1994). Samples were diluted in the electrophoresis sample buffer (U. K. Laemmli, Nature 227:680-685, 1970) without mercaptoethanol and were applied to the gels. After electrophoresis, proteinases separated on the gels were renatured by incubating the gels in 2.5% Triton X-100 in 50 mM Tris-HCl, pH 7.5 to remove SDS. After incubating the gels for 18 hours in a developing buffer (50 mM Tris-HCl, pH 7.5 containing 10 mM CaCl2), the gels were stained with Coomassie brilliant blue. Areas of digestion were visualized as non-staining regions. In some experiments, samples were pre-treated with phenylmethylsulfonyl fluoride (PMSF, 1 mM), an inhibitor of […] for one hour prior to electrophoresis, or 1,10-phenanthroline (1 mM), an inhibitor of metalloproteinases, was added to the developing buffer.

[5] = listed as Methyl-α-mannopyranoside

## CO[C@H]1O[C@H](CO)[C@@H](O)[C@H](O)[C@@H]1O [Methyl-α-D-mannopyranoside]
Acanthamoeba [1]; Acanthamoeba, in Oryctolagus cuniculus, at 0.31 mM, read-out: Inhibition of cytopathic effect (% inhib. at indicated conc.)
  inhibition at 310 µM: 61%
Acanthamoeba [1]; incubation with amoebae in presence of saccharide, without it nearly complete loss after about 20 hours
  Time at which cell layer began to lift from the periphery: 20 to 28 h
Acanthamoeba [1]; [5]
  Inhibition of amoeba-induced CPE: potent inhibitors
Acanthamoeba [1]; listed as α-Man
  Inhibition of amoeba-induced CPE: nearly identical
Acanthamoeba [1]; saccharide present in media
  Amoeba-induced cytolysis of corneal epithelial cells (microscopy, words): substantially inhibited
  Cell-free plaques in monolayer: not detected
Acanthamoeba [2]
  Adhesion of amoebae to the cell monolayer in presence of saccharide: did not adhere
[3]; comparator named in the value, listed as α-Man
  Relative inhibitory potency in binding to Man-BSA: ten times that of D-mannose; also recorded: eight times that of β-Man
[3]; [5]
  Inhibition of amoebic binding to Man-BSA / affinity of amoebic lectin: potent inhibitors
[3]; listed as α-Man
  Inhibition of amoebic binding to Man-BSA / affinity of amoebic lectin: highest affinity
Acanthamoeba [4]; Acanthamoeba 1×10^6 parasites/ml in media containing the saccharide, media alone about 100
  Percentage specific 51Cr release: ~28%
Acanthamoeba [4]; fifty millimolar, 51Cr release
  Inhibition of amoeba-induced cytolysis: more than 70%
Proteinases P2 and P3
  Expression of proteinase P2 (97 kD): robustly expressed
Proteinases P2 and P3; listed as α-Man
  Expression of proteinase P3 (80 kD): not expressed; also recorded: not detected

Reference: US6037333A, “Microbe-inhibiting compositions” (Trustees of Tufts College, priority 1998, dated 2000)
